Source: US8362081B2, “Methods for treating hemorrhagic conditions” (priority 2009, dated 2013)

How the values were obtained:
[1] = system: liver wound bleeding; test: Rabbit liver hemorrhage: bleeding time and extent; type: in vivo; conditions: 0.5 KU/kg injected via ear vein at wounding, vs physiological saline control
Experimental: Healthy rabbits having a weight of 2-2.5 kg were distributed randomly into four groups consisting of 6 rabbits per group. The rabbits in each group were fed only water for the twelve-hour period prior to operation. Each rabbit was anaesthetized by receiving an injection of sodium pentobarbital (30 mg/kg) in the abdominal cavity. An incision was made in the upper abdominal cavity of each animal and a piece of the liver was removed leaving a wound 2 cm in length, 1 cm in width and 0.5 cm in height.
At the time of wounding, the animals received by injection (2 ml/kg) via an ear vein one of following four compositions suspended in physiological saline: control, 0.5 KU/kg Reptilase, 25 mg/kg Sodium Dencichine, or 1 mg/kg solid dispersion composition of Dencichine prepared according to Example 1. Following the injection, the bleeding time and extent was recorded for each rabbit until the liver wound stopped bleeding.

[2] = system: tail wound bleeding; test: Tail bleeding time of mouse; type: in vivo, ICR mouse; conditions: mouse tail cut; 0.5 KU/kg via tail vein 30 min before cut; vs physiological saline control
Experimental: Healthy male ICR mice having a weight of 18-22 g were distributed randomly into […] consisting of 10 mice per group. The animals received by injection (0.1 ml/10 g) via the tail vein one of following four compositions suspended in physiological saline: control, 0.5 KU/kg Reptilase, 25 mg/kg Sodium Dencichine, or 1 mg/kg solid dispersion composition of Dencichine prepared according to Example 1. Thirty minutes following injection the tail of each mouse was cut 0.5 cm from the tail tip. The cut tail wound bleeding of each mouse was monitored by scrubbing the tail tip with a filter paper at timed intervals (30 s, 60 s, and every 10 s thereafter) until blood could not be seen on the filter paper.

[3] = system: acute gastric bleeding; test: Gastrorrhagia of rats: acute gastric bleeding time and extent; type: in vivo, Sprague-Dawley rat; conditions: rat gastric wound; 0.5 KU/kg via femoral vein 30 min before wounding; vs physiological saline control
Experimental: Healthy Sprague-Dawley rats having a weight of 180-220 g were distributed randomly into four groups consisting of 10 rats per group. The rats in each group were fed only water for the twelve-hour period prior to operation. Each rat was anaesthetized by receiving an injection of sodium pentobarbital (30 mg/kg) in the abdominal cavity. An incision was made in the upper abdominal cavity of each animal and the stomach exposed to air and minced along the greater curvature. The stomach was vacated for each animal and cleaned with sterile cotton swab.
The animals received by injection (1 ml/100 g) via a femoral vein one of following four compositions suspended in physiological saline: control, 0.5 KU/kg Reptilase, 25 mg/kg Sodium Dencichine, or 1 mg/kg solid dispersion composition of Dencichine prepared according to Example 1. Thirty minutes following the injection, one piece of the gastric body from each animal was excised using biopsy forceps to establish acute gastric bleeding. The bleeding time and extent was recorded for each rat until the wound stopped bleeding.

Reptilase: Haemostatic comparator injected at 0.5 KU/kg
significantly shortened: time and extent of the wound bleeding [1] | time required to stop the tail wound bleeding [2] | time and extent of the wound bleeding [3]
